Key:
Assay in all cases: CTG-3D luminescence at 96 h relative to day-0 seeding control (ratio to day 0); higher = more growth / less cytotoxicity; PDxO 3D drug screen, 96 h, CTG-3D normalised to day-0 seeding control.
HCI-011.E2 = system: HCI-011.E2 (organoid from an ER-positive breast cancer xenograft)
MDA-MB-231 = system: MDA-MB-231
HCI-008 = system: HCI-008 (organoid from a HER2-enriched breast cancer xenograft)
HCI-015 = system: HCI-015 (organoid from a triple-negative breast cancer xenograft)
HCI-017.E2 = system: HCI-017.E2 (organoid from an ER-positive breast cancer xenograft)
HCI-027 = system: HCI-027 (organoid from a triple-negative breast cancer xenograft)
HCI-005.E2 = system: HCI-005.E2 (organoid from a breast cancer xenograft with a HER2-positive history)

C/C=C1\NC(=O)[C@H]2CSSCC/C=C/[C@H](CC(=O)N[C@H](C(C)C)C(=O)N2)OC(=O)[C@H](C(C)C)NC1=O [romidepsin]
CTG-3D luminescence at 96 h
Details	12.5 pM	0.00025 µM	0.005 µM	0.1 µM	1 µM	10 µM	100 µM	625 fM
HCI-005.E2	1.07	0.734	0.155	0.0737	0.0546	0.00415	-0.00471	0.827
HCI-011.E2	1.55	1.34	0.559	0.47	0.382	0.0141	-0.00792	0.902
HCI-017.E2	1.34	1.36	0.657	0.298	0.151	0.033	-0.0104	1.17
MDA-MB-231	3.87	3.12	0.22	0.0791	0.0421	-0.000441	-0.0309	4.02

CTG-3D luminescence at 96 h
Details	12.5 pM	0.00025 µM	0.005 µM	0.1 µM	1 µM	10 µM	100 µM	625 fM
HCI-008, days in culture: 228	1.78	1.7887	0.632	0.0457	0.0185	0.0061	-0.00528	2.13
HCI-008, days in culture: 244	1.41	2.08	0.607	0.0448	0.0206	0.00309	-0.0086	2.35
HCI-011.E2, days in culture: 74	2.09	2.7	1.63	0.493	0.486	0.0744	-0.0129	1.63
HCI-015, days in culture: 172	1.96	1.32	1.05	0.221	0.425	-0.0523	-0.0841	2.7
HCI-015, days in culture: 191	2.51	1.79	0.707	0.312	0.256	0.0321	0.00192	2.21
HCI-015, days in culture: 218	2.09	1.5	0.78	-0.0662	-0.0737	-0.275	-0.342	2.07
HCI-017.E2, days in culture: 85	2.46	2.08	1.87	0.329	0.2	0.0715	-0.00898	2.18
HCI-027, days in culture: 176	2.43	1.27	0.05	0.0166	0.376	-0.165	-0.237	2.12
HCI-027, days in culture: 194	2.63	1.95	0.739	0.437	0.349	-0.0181	-0.0853	2.17
HCI-027, days in culture: 201	3.22	2.72	1.35	0.611	0.234	0.136	-0.0194	3.25

COc1cccc2c1C(=O)c1c(O)c3c(c(O)c1C2=O)C[C@@](O)(C(=O)CO)C[C@@H]3O[C@H]1C[C@H](N)[C@H](O)[C@H](C)O1 [doxorubicin]
CTG-3D luminescence at 96 h
Details	12.5 pM	0.00025 µM	0.005 µM	0.1 µM	1 µM	10 µM	100 µM	625 fM
HCI-005.E2	1.5	1.93	1.21	1.07	0.557	-0.00289	-0.00667	1.71
HCI-011.E2	1.59	1.65	1.4	1.98	1.42	0.122	0.0255	1.6
HCI-017.E2	1.87	2.06	2.07	1.89	1.2724	0.484	0.598	2.26
MDA-MB-231	4.38	4.45	4.38	3.75	1.48	0.458	0.288	4.4

CTG-3D luminescence at 96 h
Details	12.5 pM	0.00025 µM	0.005 µM	0.1 µM	1 µM	10 µM	100 µM	625 fM
HCI-008, days in culture: 228	1.33	1.91	1.48	1.51	0.743	0.19	0.0571	1.87
HCI-008, days in culture: 244	1.19	1.9	1.52	2.09	0.849	0.198	0.0903	2.37
HCI-011.E2, days in culture: 74	2.69	1.99	2.17	2.07	1.65	0.129	0.0309	2.14
HCI-015, days in culture: 172	2.4	1.39	2.21	0.657	0.0852	0.0438	0.0135	2.35
HCI-015, days in culture: 191	2.38	1.36	1.43	0.382	0.0711	0.0286	0.019	1.61
HCI-015, days in culture: 218	1.76	1.38	1.98	0.575	0.0701	0.0582	0.0222	1.86
HCI-017.E2, days in culture: 85	2.94	3.18	2.56	2.01	1.71	0.616	0.808	2.4
HCI-027, days in culture: 176	2.14	1.93	1.87	0.162	0.0301	0.0198	0.0148	1.53
HCI-027, days in culture: 194	1.83	1.43	1.48	0.308	0.0306	0.0259	0.0261	1.7
HCI-027, days in culture: 201	1.99	2.28	1.79	0.325	0.0185	0.0267	0.0218	2.05

O=C(c1ccc(F)c(F)c1Nc1ccc(I)cc1F)N1CC(O)([C@@H]2CCCCN2)C1 [cobimetinib]
CTG-3D luminescence at 96 h
Details	12.5 pM	0.00025 µM	0.005 µM	0.1 µM	1 µM	10 µM	100 µM	625 fM
HCI-005.E2	1.55	1.65	1.32	1.05	0.579	0.594	0.00269	1.63
HCI-011.E2	1.67	1.69	1.54	1.81	1.6	1.58	0.00136	1.85
HCI-017.E2	1.77	2.11	2.18	1.89	1.889	1.57	0.00898	2.01
MDA-MB-231	4.37	4.46	4.46	3.88	2.4	1.24	-0.00771	4.43

CTG-3D luminescence at 96 h
Details	12.5 pM	0.00025 µM	0.005 µM	0.1 µM	1 µM	10 µM	100 µM	625 fM
HCI-008, days in culture: 228	1.65	1.7	1.33	1.14	1.11	1	-0.00126	1.7
HCI-008, days in culture: 244	1.27	1.9	1.87	1.57	1.1	1.08	0.000182	2.25
HCI-011.E2, days in culture: 74	2.68	2.66	2.33	1.91	1.8	2.39	0.00131	2.55
HCI-015, days in culture: 172	2.36	1.69	2.13	1.86	1.47	0.989	0.00672	2.48
HCI-015, days in culture: 191	1.86	1.15	1.57	1.17	1.01	0.894	0.0092	1.58
HCI-015, days in culture: 218	1.8	1.31	2.02	1.47	1.39	1.12	0.00858	1.64
HCI-017.E2, days in culture: 85	3.27	2.34	2.34	2.15	1.65	2.15	0.017	2.45
HCI-027, days in culture: 176	2.03	1.26	2.15	1.13	1.04	0.17	0.0169	1.76
HCI-027, days in culture: 194	1.89	1.29	1.38	1.42	1.56	0.796	0.014	1.65
HCI-027, days in culture: 201	1.99	1.85	1.63	1.68	0.995	0.365	0.0102	2.09
